Test results: patent publication US6872690B2, “Herbicidal 2-alkynyl-pyri (mi) dines” (WYETH, priority 2001, dated 2005)

Key:
Type in all cases: in vivo
[1] = tested on: Abutilon theophrasti; test: Pre-emergence test; conditions: 3 weeks after treatment
Description: (§1) To evaluate their herbicidal activity, compounds according to the invention are tested using a representative range of plants:
(§2) The pre-emergence tests involve spraying a liquid formulation of the compound onto the soil in which the seeds of the plant species mentioned above has recently been sown.
(§3) The soil used in the tests is a prepared horticultural loam. The formulations used in the tests are prepared from solutions of the test compounds in acetone containing 0.4% by weight of an alkyl-phenol/ethylene oxide condensate available under the trade mark TRITON X-155. These acetone solutions are diluted with water and the resulting formulations applied at dosage levels corresponding to 0.013 kg, 0.025 kg, 0.100 kg or 0.400 kg of active material per hectare in a volume equivalent to 900 litres per hectare. In these tests untreated sown soil are used as controls. From 2 to 4 weeks after treatment, the tests are terminated and each pot is examined and rated according to the rating system set forth below: […]

[2] = tested on: Alopecurus myosuroides; test: Pre-emergence test; conditions: 3 weeks after treatment
Description: as §1, §2, §3

[3] = tested on: Cassia obtusifolia; test: Pre-emergence test; conditions: 3 weeks after treatment
Description: as §1, §2, §3

[4] = tested on: Digitaria sanguinalis; test: Pre-emergence test; conditions: 3 weeks after treatment
Description: as §1, §2, §3

[5] = tested on: Echinochloa crus-galli; test: Pre-emergence test; conditions: 3 weeks after treatment
Description: as §1, §2, §3

[6] = tested on: Galium aparine; test: Pre-emergence test; conditions: 3 weeks after treatment
Description: as §1, §2, §3

[7] = tested on: Glycine max; test: Pre-emergence test; conditions: 3 weeks after treatment
Description: as §1, §2, §3

[8] = tested on: Ipomoea hederacea; test: Pre-emergence test; conditions: 3 weeks after treatment
Description: as §1, §2, §3

[9] = tested on: Lamium purpureum; test: Pre-emergence test; conditions: 3 weeks after treatment
Description: as §1, §2, §3

[10] = tested on: Matricaria inodora; test: Pre-emergence test; conditions: 3 weeks after treatment
Description: as §1, §2, §3

[11] = tested on: Orysa sativa; test: Pre-emergence test; conditions: 3 weeks after treatment
Description: as §1, §2, §3

[12] = tested on: Setaria viridis; test: Pre-emergence test; conditions: 3 weeks after treatment
Description: as §1, §2, §3

[13] = tested on: Stellaria media; test: Pre-emergence test; conditions: 3 weeks after treatment
Description: as §1, §2, §3

[14] = tested on: Triticum aestivum; test: Pre-emergence test; conditions: 3 weeks after treatment
Description: as §1, §2, §3

[15] = tested on: Zea mays; test: Pre-emergence test; conditions: 3 weeks after treatment
Description: as §1, §2, §3

[16] = tested on: Abutilon theophrasti; test: Post-emergence herbicidal activity test; conditions: 2-4 weeks after treatment
Description: as §1
(§4) These acetone solutions are diluted with water and the resulting formulations applied at dosage levels equivalent of about 0.025 to 0. 4 kg per hectare of test compound per pot. After spraying the plants are placed on greenhouse benches and are cared for in the usual manner, commensurate with conventional greenhouse practices. From 2 to 4 weeks after treatment, the seedling plants are examined and rated according to the rating system provided above.

[17] = tested on: Alopecurus myosuroides; test: Post-emergence herbicidal activity test; conditions: 2-4 weeks after treatment
Description: as §1, §4

[18] = tested on: Cassia obtusifolia; test: Post-emergence herbicidal activity test; conditions: 2-4 weeks after treatment
Description: as §1, §4

[19] = tested on: Digitaria sanguinalis; test: Post-emergence herbicidal activity test; conditions: 2-4 weeks after treatment
Description: as §1, §4

[20] = tested on: Echinochloa crus-galli; test: Post-emergence herbicidal activity test; conditions: 2-4 weeks after treatment
Description: as §1, §4

[21] = tested on: Galium aparine; test: Post-emergence herbicidal activity test; conditions: 2-4 weeks after treatment
Description: as §1, §4

[22] = tested on: Glycine max; test: Post-emergence herbicidal activity test; conditions: 2-4 weeks after treatment
Description: as §1, §4

[23] = tested on: Ipomoea hederacea; test: Post-emergence herbicidal activity test; conditions: 2-4 weeks after treatment
Description: as §1, §4

[24] = tested on: Matricaria inodora; test: Post-emergence herbicidal activity test; conditions: 2-4 weeks after treatment
Description: as §1, §4

[25] = tested on: Orysa sativa; test: Post-emergence herbicidal activity test; conditions: 2-4 weeks after treatment
Description: as §1, §4

[26] = tested on: Setaria viridis; test: Post-emergence herbicidal activity test; conditions: 2-4 weeks after treatment
Description: as §1, §4

[27] = tested on: Stellaria media; test: Post-emergence herbicidal activity test; conditions: 2-4 weeks after treatment
Description: as §1, §4

[28] = tested on: Triticum aestivum; test: Post-emergence herbicidal activity test; conditions: 2-4 weeks after treatment
Description: as §1, §4

[29] = tested on: Zea mays; test: Post-emergence herbicidal activity test; conditions: 2-4 weeks after treatment
Description: as §1, §4

Cc1cc(C#Cc2ccccc2)nc(Oc2cc(C(F)(F)F)nn2C)c1 [Example 1, 4-methyl-6-phenylethynyl-2-(1-methyl-3-trifluoromethylpyrazol-5-yloxy)pyridine]
1 (1-Trace effect): Assessment (pre-emergence application) ALOMY ([2]; 0.013 kg/ha) | Assessment (pre-emergence application) CASOB ([3]; 0.013 kg/ha) | Assessment (pre-emergence application) ECHCG ([5]; 0.013 kg/ha) | Assessment (pre-emergence application) GALAP ([6]; 0.013 kg/ha) | Assessment (pre-emergence application) ORYSA ([11]; 0.013 kg/ha) | Assessment (pre-emergence application) ZEAMX ([15]; 0.013 kg/ha)
7 (7-Good herbicidal effect): Assessment (pre-emergence application) GALAP ([6]; 0.400 kg/ha) | Assessment (pre-emergence application) LAMPU ([9]; 0.013 kg/ha) | Assessment (pre-emergence application) MATIN ([10]; 0.025 kg/ha) | Assessment (pre-emergence application) SETVI ([12]; 0.025 kg/ha) | Post-emergence application ALOMY ([17]; 0.100 kg/ha) | Post-emergence application CASOB ([18]; 0.100 kg/ha) | Post-emergence application CASOB ([18]; 0.400 kg/ha) | Post-emergence application DIGSA ([19]; 0.100 kg/ha) | Post-emergence application DIGSA ([19]; 0.400 kg/ha) | Post-emergence application ECHCG ([20]; 0.100 kg/ha) | Post-emergence application SETVI ([26]; 0.025 kg/ha) | Post-emergence application STEME ([27]; 0.400 kg/ha)
2 (2-Slight effect): Assessment (pre-emergence application) ALOMY ([2]; 0.025 kg/ha) | Assessment (pre-emergence application) GALAP ([6]; 0.025 kg/ha) | Assessment (pre-emergence application) ORYSA ([11]; 0.025 kg/ha) | Assessment (pre-emergence application) TRZWA ([14]; 0.100 kg/ha) | Assessment (pre-emergence application) ZEAMX ([15]; 0.025 kg/ha) | Assessment (pre-emergence application) ZEAMX ([15]; 0.100 kg/ha) | Post-emergence application ORYSA ([25]; 0.025 kg/ha) | Post-emergence application TRZWA ([28]; 0.025 kg/ha) | Post-emergence application ZEAMX ([29]; 0.025 kg/ha)
9 (9-Complete kill): Assessment (pre-emergence application) ABUTH ([1]; 0.400 kg/ha) | Assessment (pre-emergence application) DIGSA ([4]; 0.100 kg/ha) | Assessment (pre-emergence application) DIGSA ([4]; 0.400 kg/ha) | Assessment (pre-emergence application) IPOHE ([8]; 0.400 kg/ha) | Assessment (pre-emergence application) SETVI ([12]; 0.400 kg/ha) | Assessment (pre-emergence application) STEME ([13]; 0.100 kg/ha) | Assessment (pre-emergence application) STEME ([13]; 0.400 kg/ha)
6 (6-Herbicidal effect): Post-emergence application ABUTH ([16]; 0.400 kg/ha) | Post-emergence application CASOB ([18]; 0.025 kg/ha) | Post-emergence application GALAP ([21]; 0.025 kg/ha) | Post-emergence application GALAP ([21]; 0.100 kg/ha) | Post-emergence application GALAP ([21]; 0.400 kg/ha) | Post-emergence application GLXMA ([22]; 0.100 kg/ha) | Post-emergence application GLXMA ([22]; 0.400 kg/ha) | Post-emergence application IPOHE ([23]; 0.025 kg/ha) | Post-emergence application MATIN ([24]; 0.400 kg/ha) | Post-emergence application STEME ([27]; 0.100 kg/ha)
5 (5-Definite injury): Assessment (pre-emergence application) ABUTH ([1]; 0.100 kg/ha) | Assessment (pre-emergence application) DIGSA ([4]; 0.013 kg/ha) | Assessment (pre-emergence application) DIGSA ([4]; 0.025 kg/ha) | Assessment (pre-emergence application) ECHCG ([5]; 0.100 kg/ha) | Assessment (pre-emergence application) MATIN ([10]; 0.013 kg/ha) | Assessment (pre-emergence application) ORYSA ([11]; 0.400 kg/ha) | Assessment (pre-emergence application) STEME ([13]; 0.013 kg/ha) | Post-emergence application ABUTH ([16]; 0.100 kg/ha) | Post-emergence application GLXMA ([22]; 0.025 kg/ha) | Post-emergence application MATIN ([24]; 0.100 kg/ha) | Post-emergence application STEME ([27]; 0.025 kg/ha) | Post-emergence application ZEAMX ([29]; 0.400 kg/ha)
4 (4-Injury): Assessment (pre-emergence application) ABUTH ([1]; 0.013 kg/ha) | Assessment (pre-emergence application) ALOMY ([2]; 0.100 kg/ha) | Assessment (pre-emergence application) ECHCG ([5]; 0.025 kg/ha) | Assessment (pre-emergence application) GLXMA ([7]; 0.400 kg/ha) | Assessment (pre-emergence application) IPOHE ([8]; 0.100 kg/ha) | Assessment (pre-emergence application) SETVI ([12]; 0.013 kg/ha) | Assessment (pre-emergence application) ZEAMX ([15]; 0.400 kg/ha) | Post-emergence application ABUTH ([16]; 0.025 kg/ha) | Post-emergence application ALOMY ([17]; 0.025 kg/ha) | Post-emergence application ECHCG ([20]; 0.025 kg/ha) | Post-emergence application MATIN ([24]; 0.025 kg/ha) | Post-emergence application ORYSA ([25]; 0.400 kg/ha) | Post-emergence application ZEAMX ([29]; 0.100 kg/ha)
3 (3-Moderate effect): Assessment (pre-emergence application) GALAP ([6]; 0.100 kg/ha) | Assessment (pre-emergence application) GLXMA ([7]; 0.100 kg/ha) | Assessment (pre-emergence application) IPOHE ([8]; 0.013 kg/ha) | Assessment (pre-emergence application) ORYSA ([11]; 0.100 kg/ha) | Assessment (pre-emergence application) TRZWA ([14]; 0.400 kg/ha) | Post-emergence application DIGSA ([19]; 0.025 kg/ha) | Post-emergence application ORYSA ([25]; 0.100 kg/ha) | Post-emergence application TRZWA ([28]; 0.100 kg/ha) | Post-emergence application TRZWA ([28]; 0.400 kg/ha)
0 (0-No effect): Assessment (pre-emergence application) TRZWA ([14]; 0.013 kg/ha) | Assessment (pre-emergence application) TRZWA ([14]; 0.025 kg/ha)
8 (8-Approaching complete kill): Assessment (pre-emergence application) ALOMY ([2]; 0.400 kg/ha) | Assessment (pre-emergence application) CASOB ([3]; 0.400 kg/ha) | Assessment (pre-emergence application) ECHCG ([5]; 0.400 kg/ha) | Assessment (pre-emergence application) LAMPU ([9]; 0.100 kg/ha) | Assessment (pre-emergence application) LAMPU ([9]; 0.400 kg/ha) | Assessment (pre-emergence application) MATIN ([10]; 0.100 kg/ha) | Assessment (pre-emergence application) MATIN ([10]; 0.400 kg/ha) | Assessment (pre-emergence application) SETVI ([12]; 0.100 kg/ha) | Assessment (pre-emergence application) STEME ([13]; 0.025 kg/ha) | Post-emergence application ALOMY ([17]; 0.400 kg/ha) | Post-emergence application ECHCG ([20]; 0.400 kg/ha) | Post-emergence application IPOHE ([23]; 0.400 kg/ha) | Post-emergence application SETVI ([26]; 0.100 kg/ha) | Post-emergence application SETVI ([26]; 0.400 kg/ha)
